Measured values from patent US20210238197A1, “NOVEL OXOQUINOLIZINE COMPOUNDS FOR THE TREATMENT AND PROPHYLAXIS OF BACTERIAL INFECTION” (Hoffmann-La Roche Inc., priority 2018, published 2021).
Values after ≈ are worked out from the molar mass of the structure shown. Like-named read-outs stand apart in the source and are kept apart here.

Assays:
[1] = system: K. pneumoniae (ATCC10031); assay: 50% growth inhibitory concentration (IC50) determination assay, K. pneumoniae; assay type: cell-based; details: Klebsiella pneumoniae, ATCC10031; Iso-Sensitest broth, growth by OD 600 nm over 16 h; <0.098 = detection limit
Experimental: (§1) The in vitro antimicrobial activity of the compounds against S. aureus (ATCC29213), K. pneumoniae (ATCC10031), and A. baumannii (ATCC17978), was determined according to the following procedure: The assay used a 10-points Iso-Sensitest broth medium to measure quantitatively the in vitro activity of the compounds against S. aureus ATCC29213, K. pneumoniae ATCC 10031, and A. baumannii ATCC17978. Stock compounds in DMSO were serially two-fold diluted (range from 50 to 0.097 μM final concentration) in 384 wells microtiter plates and inoculated with 49 μL the bacterial suspension in Iso-Sensitest broth medium to have a final cell concentration of ˜5×10^5 CFU/mL in a final volume/well of 50 μL/well. Microtiter plates were incubated at 35±2° C. Bacterial cell growth was determined with the measurement of optical density at λ=600 nm each 20 minutes over a time course of 16 h.

S. aureus (ATCC29213) = assay: 50% growth inhibitory concentration (IC50) determination assay, S. aureus; assay type: cell-based; details: Staphylococcus aureus, ATCC29213; Iso-Sensitest broth, growth by OD 600 nm over 16 h; <0.098 = detection limit
Experimental: as §1

A. baumannii (ATCC17978) = assay: 50% growth inhibitory concentration (IC50) determination assay, A. baumannii; assay type: cell-based; details: Acinetobacter baumannii, ATCC17978; Iso-Sensitest broth, growth by OD 600 nm over 16 h; <0.098 = detection limit
Experimental: as §1

[2] = system: multiple species and strains; assay: microbe, parasite or virus in culture; parameters: MIC S9 / MIC S7 / MIC S11 / MIC S8 / MIC S10: unit not given beside the values; details: for MIC S9: E. coli ATCC 35218
Experimental: The MIC of antibacterial compounds against multiple species and strains was determined using the broth microdilution method according to M07-A10 Clinical and Laboratory Standards Institute (CLSI) guidelines (CLSI (2015) Methods for dilution antimicrobial susceptibility tests for bacteria that grow aerobically; Approved Standard, Tenth Edition. CLSI Document M7-A10 (ISBN 1-56238-987-4). Wayne, Pa.: Clinical and Laboratory Standards Institute, 19087, USA.). In short, bacterial strain preparation was performed on D1 and D2. […] 5-10 well-isolated colonies of similar morphology were selected and re-streaked onto fresh agar plates using sterile loops and incubated for 20-24 hr at 35±2° C. Bacterial strains were subcultured two times to ensure fresh inoculums for MIC screening. […] Alternatively, 1-2 colonies were transferred into 500 μL of saline and OD600 was adjusted to ˜0.1 using an OD meter. Bacterial inoculum was diluted by 1:280 for Gram-positive strains and 1:400 for Gram-negative strains into corresponding medium broth (CAMHB, CAMHB+3% lysed horse blood, HTM) (e.g. 35.6 μL of inoculum into 10 mL of CAMHB or 25 μL of inoculum into 10 mL of CAMHB). For compound plate, the compound stock solutions were prepared in 100% DMSO on the day of MIC screening and used immediately. Compound stock concentration=[(highest testing concentration)×100 μL/2 μL] (e.g. if the required highest testing concentration is 64 μg/mL in assay plates, stock concentration=64 μg/mL×100 μL/2 μL=3.2 mg/mL). […] 1 μL of each well was transferred in a new MTP, which served as the test plate by subsequent inoculation. The bacterial suspension prepared above is dispensed at 98 μL/well within 15 minutes after preparation. Negative controls (lack of bacterial cells) and growth control wells (lack of compound) were included in all plates. MTPs were incubated for 18-24 hours at 35±2° C. in ambient air. The MIC was recorded and CFUs were calculated on Day 4. The assay plate was placed on the top of MIC reader, and the magnification mirror was adjusted to read each wells, recording growth status as raw data. Photo images of each assay plates were recorded using Q Count 530 (Spiral Biotech). The MIC value of each compound, expressed as μg/mL, was determined as the lowest concentration required for complete growth inhibition (no visible growth).

[3] = Acinetobacter baumannii, ATCC19606, read-out: MIC S1, A. baumannii ATCC 19606
[4] = Acinetobacter baumannii, ATCC51432, read-out: MIC S2, A. baumannii ATCC 51432
[5] = Acinetobacter baumannii, ATCCBAA747, read-out: MIC S3, A. baumannii ATCC BAA-747
[6] = Escherichia coli, ATCC25922, read-out: MIC S11, E. coli ATCC 25922
[7] = Escherichia coli, ATCCBAA2340, read-out: MIC S10, E. coli ATCC BAA-2340
[8] = Klebsiella pneumoniae, ATCC10031, read-out: MIC S4, K. pneumoniae ATCC 10031
[9] = Klebsiella pneumoniae, ATCC700603, read-out: MIC S5, K. pneumoniae ATCC 700603
[10] = Klebsiella pneumoniae, ATCCBAA2146, read-out: MIC S6, K. pneumoniae ATCC BAA-2146
[11] = Pseudomonas aeruginosa, ATCC27853, read-out: MIC S7, P. aeruginosa ATCC 27853
[12] = Pseudomonas aeruginosa, ATCCBAA2113, read-out: MIC S8, P. aeruginosa ATCC BAA-2113

With `CNc1cc(F)c(F)c2c1[nH]c1ncc(-c3ccc4ccc(C(=O)O)c(=O)n4c3)c(N3C[C@@H]4[C@H](C3)[C@H]4N(C)C)c12` [Example 1.13, 7-(4-((1R,5S,6S)-6-(dimethylamino)-3-azabicyclo[3.1.0]hexan-3-yl)-5,6-difluoro-8-(methylamino)-9H-pyrido[2,3-b]indol-3-yl)-4-oxo-4H-quinolizine-3-carboxylic acid] the IC50 [1] was < 98 nM, the IC50 (S. aureus (ATCC29213)) was < 98 nM and the IC50 (A. baumannii (ATCC17978)) was < 98 nM.
In the case of `CNc1cc(F)c(F)c2c1[nH]c1ncc(-c3cc(C)c4ccc(C(=O)O)c(=O)n4c3)c(N(C)C)c12` [Example 1.20, 7-[4-(dimethylamino)-5,6-difluoro-8-(methylamino)-9H-pyrido[2,3-b]indol-3-yl]-9-methyl-4-oxo-quinolizine-3-carboxylic acid], the MIC [2, 3] is reported as 0.187 µg/mL (≈ 0.392 µM), the MIC [2, 4] is reported as 1.49 µg/mL (≈ 3.12 µM) and the MIC [2, 5] is reported as 0.746 µg/mL (≈ 1.56 µM). The “MIC S9” value [2] was 0.559, the MIC [2, 6] was 0.42 µg/mL (≈ 0.88 µM) and the MIC [2, 7] was 0.559 µg/mL (≈ 1.17 µM). The MIC [2, 8] was 0.187 µg/mL (≈ 0.392 µM), the MIC [2, 9] was 1.49 µg/mL (≈ 3.12 µM) and the MIC [2, 10] was 2.98 µg/mL (≈ 6.25 µM). The MIC [2, 11] was 2.98 µg/mL (≈ 6.25 µM) and the MIC [2, 12] was 2.24 µg/mL (≈ 4.69 µM).
With `CNc1cc(F)c(F)c2c1[nH]c1ncc(-c3ccc4ccc(C(=O)O)c(=O)n4c3)c(N3CCC(C4(N)CC4)C3)c12` (stereo not drawn) [Example 1.21, 7-[4-[3-(1-aminocyclopropyl)pyrrolidin-1-yl]-5,6-difluoro-8-(methylamino)-9H-pyrido[2,3-b]indol-3-yl]-4-oxo-quinolizine-3-carboxylic acid] the MIC [2, 3] was 0.603 µg/mL (≈ 1.11 µM), the MIC [2, 4] was 1.21 µg/mL (≈ 2.22 µM) and the MIC [2, 5] was 1.21 µg/mL (≈ 2.22 µM). For the same compound, the “MIC S9” value [2] was 0.603, the MIC [2, 6] was 0.34 µg/mL (≈ 0.624 µM) and the MIC [2, 7] was 0.302 µg/mL (≈ 0.555 µM). For the same compound, the MIC [2, 8] was 0.038 µg/mL (≈ 0.0698 µM), the MIC [2, 9] was 4.83 µg/mL (≈ 8.87 µM) and the MIC [2, 10] was 4.83 µg/mL (≈ 8.87 µM). The MIC [2, 11] was 1.21 µg/mL (≈ 2.22 µM) and the MIC [2, 12] was 2.41 µg/mL (≈ 4.43 µM).
With `CNc1cc(F)c(F)c2c1[nH]c1ncc(-c3ccc4c(C5CC5)cc(C(=O)O)c(=O)n4c3)c(N3CC[C@H]4CN(C)C[C@H]43)c12` (relative stereo) [Example 2.05, 7-[4-[cis-5-methyl-2,3,3a,4,6,6a-hexahydropyrrolo[2,3-c]pyrrol-1-yl]-5,6-difluoro-8-(methylamino)-9H-pyrido[2,3-b]indol-3-yl]-1-cyclopropyl-4-oxo-quinolizine-3-carboxylic acid] the IC50 [1] was < 98 nM, the IC50 (S. aureus (ATCC29213)) was < 98 nM and the IC50 (A. baumannii (ATCC17978)) was < 98 nM.
In the case of `CNc1cc(F)c(F)c2c1[nH]c1ncc(-c3ccc4ccc(C(=O)O)c(=O)n4c3)c(N3CC4C(N(C)C)CO[C@@H]4C3)c12` (stereo partly drawn) [Example 1.06, 7-[4-[cis-3-(dimethylamino)-2,3,3a,4,6,6a-hexahydrofuro[2,3-c]pyrrol-5-yl]-5,6-difluoro-8-(methylamino)-9H-pyrido[2,3-b]indol-3-yl]-4-oxo-quinolizine-3-carboxylic acid], the IC50 [1] is reported as < 98 nM, the IC50 (S. aureus (ATCC29213)) is reported as 137 nM and the IC50 (A. baumannii (ATCC17978)) is reported as < 98 nM.
`CNc1cc(F)c(F)c2c1[nH]c1ncc(-c3ccc4ccc(C(=O)O)c(=O)n4c3)c(N3C[C@@H]4CCN(C)[C@@H]4C3)c12` [Example 3.03B, 7-[4-[(3aS,6aS)-1-methyl-2,3,3a,4,6,6a-hexahydropyrrolo[3,4-b]pyrrol-5-yl]-5,6-difluoro-8-(methylamino)-9H-pyrido[2,3-b]indol-3-yl]-4-oxo-quinolizine-3-carboxylic acid] was tested, and the IC50 [1] was < 98 nM, the IC50 (S. aureus (ATCC29213)) was < 98 nM and the IC50 (A. baumannii (ATCC17978)) was < 98 nM.
In the case of `CNc1cc(F)c(C#N)c2c1[nH]c1ncc(-c3ccc4ccc(C(=O)O)c(=O)n4c3)c(N(C)C)c12` [Example 1.18, 7-[5-cyano-4-(dimethylamino)-6-fluoro-8-(methylamino)-9H-pyrido[2,3-b]indol-3-yl]-4-oxo-quinolizine-3-carboxylic acid], the MIC [2, 3] is reported as 0.092 µg/mL (≈ 0.196 µM), the MIC [2, 4] is reported as 0.367 µg/mL (≈ 0.78 µM) and the MIC [2, 5] is reported as 0.184 µg/mL (≈ 0.391 µM). The “MIC S9” value [2] was 0.046, the MIC [2, 6] was 0.551 µg/mL (≈ 1.17 µM) and the MIC [2, 7] was 0.046 µg/mL (≈ 0.0978 µM). For the same compound, the MIC [2, 8] was 0.046 µg/mL (≈ 0.0978 µM), the MIC [2, 9] was 0.092 µg/mL (≈ 0.196 µM) and the MIC [2, 10] was 0.735 µg/mL (≈ 1.56 µM). The MIC [2, 11] was 0.367 µg/mL (≈ 0.78 µM) and the MIC [2, 12] was 0.184 µg/mL (≈ 0.391 µM).
